Reference: patent publication US8680139B2 (Progenra, priority 2009, dated 2014)
pEC50: −log10 of the molar value.

Biological target: T1, USP7 (Homo sapiens, UniProt Q93009)
T1 construct: full length human USP7 protein; made in house
Assay: USP7, Ub-PLA2 assay
Type: biochemical
Conditions: Ub-PLA2 / NBD C6-HPC fluorescence, 30 minute preincubation; read-out: EC50 for inhibition of USP7
How it was run: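 Compounds tested against USP7 with DMSO vehicle control and NEM-treated wells as background. Fluorescence (RFU) read-out; % inhibition normalized per plate to mean DMSO and NEM controls.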

T1 sequence (Q93009 whole entry): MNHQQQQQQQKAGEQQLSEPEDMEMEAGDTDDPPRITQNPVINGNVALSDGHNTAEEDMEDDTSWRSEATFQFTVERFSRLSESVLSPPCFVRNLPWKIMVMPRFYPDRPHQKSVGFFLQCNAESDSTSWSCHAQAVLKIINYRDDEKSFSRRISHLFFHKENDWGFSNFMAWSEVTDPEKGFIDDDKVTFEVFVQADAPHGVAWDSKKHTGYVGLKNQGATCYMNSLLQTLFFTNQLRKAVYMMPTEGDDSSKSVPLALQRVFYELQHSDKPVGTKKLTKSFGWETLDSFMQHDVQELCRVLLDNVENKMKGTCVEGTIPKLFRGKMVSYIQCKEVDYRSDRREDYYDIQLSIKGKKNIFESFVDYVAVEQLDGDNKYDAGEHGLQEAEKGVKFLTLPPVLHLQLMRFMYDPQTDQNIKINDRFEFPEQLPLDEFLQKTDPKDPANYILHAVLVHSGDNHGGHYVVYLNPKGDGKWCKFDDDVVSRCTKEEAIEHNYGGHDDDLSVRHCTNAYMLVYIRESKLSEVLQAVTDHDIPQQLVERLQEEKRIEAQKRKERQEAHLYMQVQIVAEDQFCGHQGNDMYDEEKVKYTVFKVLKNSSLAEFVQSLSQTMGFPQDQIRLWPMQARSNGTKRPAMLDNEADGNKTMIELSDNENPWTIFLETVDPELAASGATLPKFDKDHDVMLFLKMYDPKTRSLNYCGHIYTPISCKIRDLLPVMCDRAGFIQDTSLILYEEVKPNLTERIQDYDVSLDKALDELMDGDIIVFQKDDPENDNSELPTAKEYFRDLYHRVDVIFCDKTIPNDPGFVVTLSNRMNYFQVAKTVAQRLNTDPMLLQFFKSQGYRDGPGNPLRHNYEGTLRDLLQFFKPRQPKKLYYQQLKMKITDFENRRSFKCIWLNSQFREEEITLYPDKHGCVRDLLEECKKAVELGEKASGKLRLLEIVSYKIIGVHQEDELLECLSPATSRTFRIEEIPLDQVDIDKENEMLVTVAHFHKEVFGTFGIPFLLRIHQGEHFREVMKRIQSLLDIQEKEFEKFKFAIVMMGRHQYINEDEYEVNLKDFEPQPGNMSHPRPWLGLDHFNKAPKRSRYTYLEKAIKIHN

Question: With `CN1CCC(O)(CNC(=O)c2cc([N+](=O)[O-])c(Sc3c(Cl)cncc3Cl)s2)CC1` [Example 90, 5-((3,5-dichloropyridin-4-yl)thio)-N-((4-hydroxy-1-methylpiperidin-4-yl)methyl)-4-nitrothiophene-2-carboxamide] as the molecule, how does the pEC50 read?
Answer: The pEC50 was 5.00 to 6.00.

Question: How did the pEC50 turn out when `CCN1CCC(CNC(=O)c2cc([N+](=O)[O-])c(Sc3c(Cl)cncc3Cl)s2)C1` (stereo not shown) [Example 91, 5-((3,5-dichloropyridin-4-yl)thio)-N-((1-ethylpyrrolidin-3-yl)methyl)-4-nitrothiophene-2-carboxamide] was run?
Answer: The pEC50 was 5.00 to 6.00.

Question: `CCN1C[C@H](NC(=O)c2cc([N+](=O)[O-])c(Sc3c(Cl)cncc3Cl)s2)[C@@H](OC)C1` [Example 92, 5-((3,5-dichloropyridin-4-yl)thio)-N-((3S,4S)-1-ethyl-4-methoxypyrrolidin-3-yl)-4-nitrothiophene-2-carboxamide] was tested. Which pEC50 did it give?
Answer: The pEC50 was 5.00 to 6.00.

Question: With `COCCN1CC(NC(=O)c2cc([N+](=O)[O-])c(Sc3c(Cl)cncc3Cl)s2)CC1=O` (stereo not shown) [Example 93, 5-((3,5-dichloropyridin-4-yl)thio)-N-(1-(2-methoxyethyl)-5-oxopyrrolidin-3-yl)-4-nitrothiophene-2-carboxamide] as the molecule, how does the pEC50 read?
Answer: The pEC50 was 5.00 to 6.00.

Question: `CN1CCC(NC(=O)c2cc([N+](=O)[O-])c(Sc3c(Cl)cncc3Cl)s2)C1` (stereo not shown) [Example 94, 5-((3,5-dichloropyridin-4-yl)thio)-N-(1-methylpyrrolidin-3-yl)-4-nitrothiophene-2-carboxamide] was tested. Which pEC50 did it give?
Answer: The pEC50 was 5.00 to 6.00.

Question: How did the pEC50 turn out when `O=C(NC1CCCNC1=O)c1cc([N+](=O)[O-])c(Sc2c(Cl)cncc2Cl)s1` (stereo not shown) [Example 95, 5-((3,5-dichloropyridin-4-yl)thio)-4-nitro-N-(2-oxopiperidin-3-yl)thiophene-2-carboxamide] was run?
Answer: Its pEC50 is 5.00 to 6.00.

Question: With `O=C(NCCc1ccccc1)c1cc([N+](=O)[O-])c(Sc2c(Cl)cncc2Cl)s1` [Example 96, 5-((3,5-dichloropyridin-4-yl)thio)-4-nitro-N-phenethylthiophene-2-carboxamide] as the molecule, how does the pEC50 read?
Answer: Its pEC50 is at least 6.00.

Question: `COc1cccc(CNC(=O)c2cc([N+](=O)[O-])c(Sc3c(Cl)cncc3Cl)s2)c1OC` [Example 97, 5-((3,5-dichloropyridin-4-yl)thio)-N-(2,3-dimethoxybenzyl)-4-nitrothiophene-2-carboxamide] was tested. Which pEC50 did it give?
Answer: Its pEC50 is at least 6.00.

Question: `COc1ccc(CNC(=O)c2cc([N+](=O)[O-])c(Sc3c(Cl)cncc3Cl)s2)cc1OC` [Example 98, 5-((3,5-dichloropyridin-4-yl)thio)-N-(3,4-dimethoxybenzyl)-4-nitrothiophene-2-carboxamide] was tested. Which pEC50 did it give?
Answer: The pEC50 was at least 6.00.

Question: How did the pEC50 turn out when `COc1cccc(CNC(=O)c2cc([N+](=O)[O-])c(Sc3c(Cl)cncc3Cl)s2)c1` [Example 99, 5-((3,5-dichloropyridin-4-yl)thio)-N-(3-methoxybenzyl)-4-nitrothiophene-2-carboxamide] was run?
Answer: The pEC50 was at least 6.00.

Question: With `O=C(NCCCN1CCCCC1)c1cc([N+](=O)[O-])c(Sc2c(Cl)cncc2Cl)s1` [Example 100, 5-((3,5-dichloropyridin-4-yl)thio)-4-nitro-N-(3-(piperidin-1-yl)propyl)thiophene-2-carboxamide] as the molecule, how does the pEC50 read?
Answer: The pEC50 was at least 6.00.

Question: `O=C(NCc1cccnc1)c1cc([N+](=O)[O-])c(Sc2c(Cl)cncc2Cl)s1` [Example 101, 5-((3,5-dichloropyridin-4-yl)thio)-4-nitro-N-(pyridin-3-ylmethyl)thiophene-2-carboxamide] was tested. Which pEC50 did it give?
Answer: The pEC50 was at least 6.00.

Question: How did the pEC50 turn out when `CS(=O)(=O)c1ccc(CNC(=O)c2cc([N+](=O)[O-])c(Sc3c(Cl)cncc3Cl)s2)cc1` [Example 102, 5-((3,5-dichloropyridin-4-yl)thio)-N-(4-(methylsulfonyl)benzyl)-4-nitrothiophene-2-carboxamide] was run?
Answer: Its pEC50 is at least 6.00.

Question: `O=C(NCCCN1CCCC1=O)c1cc([N+](=O)[O-])c(Sc2c(Cl)cncc2Cl)s1` [Example 104, 5-((3,5-dichloropyridin-4-yl)thio)-4-nitro-N-(3-(2-oxopyrrolidin-1-yl)propyl)thiophene-2-carboxamide] was tested. Which pEC50 did it give?
Answer: Its pEC50 is at least 6.00.

Question: `O=C(NCCc1ccc(Br)cc1)c1cc([N+](=O)[O-])c(Sc2c(Cl)cncc2Cl)s1` [Example 105, N-(4-bromophenethyl)-5-((3,5-dichloropyridin-4-yl)thio)-4-nitrothiophene-2-carboxamide] was tested. Which pEC50 did it give?
Answer: The pEC50 was at least 6.00.

Question: How did the pEC50 turn out when `O=C(NCc1ccc(Cl)cc1)c1cc([N+](=O)[O-])c(Sc2c(Cl)cncc2Cl)s1` [Example 106, N-(4-chlorobenzyl)-5-((3,5-dichloropyridin-4-yl)thio)-4-nitrothiophene-2-carboxamide] was run?
Answer: The pEC50 was at least 6.00.

Question: With `O=C(NCc1ccc(F)cc1)c1cc([N+](=O)[O-])c(Sc2c(Cl)cncc2Cl)s1` [Example 107, 5-((3,5-dichloropyridin-4-yl)thio)-N-(4-fluorobenzyl)-4-nitrothiophene-2-carboxamide] as the molecule, how does the pEC50 read?
Answer: The pEC50 was at least 6.00.

Question: How did the pEC50 turn out when `O=C(NCCc1cccnc1)c1cc([N+](=O)[O-])c(Sc2c(Cl)cncc2Cl)s1` [Example 108, 5-((3,5-dichloropyridin-4-yl)thio)-4-nitro-N-(2-(pyridin-3-yl)ethyl)thiophene-2-carboxamide] was run?
Answer: The pEC50 was at least 6.00.

Question: How did the pEC50 turn out when `O=C(NCCc1ccccn1)c1cc([N+](=O)[O-])c(Sc2c(Cl)cncc2Cl)s1` [Example 109, 5-((3,5-dichloropyridin-4-yl)thio)-4-nitro-N-(2-(pyridin-2-yl)ethyl)thiophene-2-carboxamide] was run?
Answer: The pEC50 was at least 6.00.

Question: `CC(C)CCNC(=O)c1cc([N+](=O)[O-])c(Sc2c(Cl)cncc2Cl)s1` [Example 110, 5-((3,5-dichloropyridin-4-yl)thio)-N-isopentyl-4-nitrothiophene-2-carboxamide] was tested. Which pEC50 did it give?
Answer: Its pEC50 is at least 6.00.

Question: `O=C(NCCc1ccccc1F)c1cc([N+](=O)[O-])c(Sc2c(Cl)cncc2Cl)s1` [Example 111, 5-((3,5-dichloropyridin-4-yl)thio)-N-(2-fluorophenethyl)-4-nitrothiophene-2-carboxamide] was tested. Which pEC50 did it give?
Answer: The pEC50 was at least 6.00.

Question: How did the pEC50 turn out when `O=C(Nc1ccc2c(c1)CCC2)c1cc([N+](=O)[O-])c(Sc2c(Cl)cncc2Cl)s1` [Example 112] was run?
Answer: The pEC50 was at least 6.00.

Question: With `COc1ccccc1CCNC(=O)c1cc([N+](=O)[O-])c(Sc2c(Cl)cncc2Cl)s1` [Example 113, 5-((3,5-dichloropyridin-4-yl)thio)-N-(2-methoxyphenethyl)-4-nitrothiophene-2-carboxamide] as the molecule, how does the pEC50 read?
Answer: The pEC50 was at least 6.00.

Question: With `O=C(NCc1ccc(OC(F)(F)F)cc1)c1cc([N+](=O)[O-])c(Sc2c(Cl)cncc2Cl)s1` [Example 114, 5-((3,5-dichloropyridin-4-yl)thio)-4-nitro-N-(4-(trifluoromethoxy)benzyl)thiophene-2-carboxamide] as the molecule, how does the pEC50 read?
Answer: Its pEC50 is at least 6.00.

Question: How did the pEC50 turn out when `O=C(NCCCc1ccccn1)c1cc([N+](=O)[O-])c(Sc2c(Cl)cncc2Cl)s1` [Example 115, 5-((3,5-dichloropyridin-4-yl)thio)-4-nitro-N-(3-(pyridin-2-yl)propyl)thiophene-2-carboxamide] was run?
Answer: Its pEC50 is at least 6.00.

Question: `O=C(Nc1ccccc1)c1cc([N+](=O)[O-])c(Sc2c(Cl)cncc2Cl)s1` [Example 116, 5-((3,5-dichloropyridin-4-yl)thio)-4-nitro-N-phenylthiophene-2-carboxamide] was tested. Which pEC50 did it give?
Answer: Its pEC50 is at least 6.00.

Question: `O=C(NCCN1CCN(Cc2ccccc2)CC1)c1cc([N+](=O)[O-])c(Sc2c(Cl)cncc2Cl)s1` [Example 117, N-(2-(4-benzylpiperazin-1-yl)ethyl)-5-((3,5-dichloropyridin-4-yl)thio)-4-nitrothiophene-2-carboxamide] was tested. Which pEC50 did it give?
Answer: The pEC50 was at least 6.00.

Question: `O=C(NCc1ccc(Br)cc1)c1cc([N+](=O)[O-])c(Sc2c(Cl)cncc2Cl)s1` [Example 118, N-(4-bromobenzyl)-5-((3,5-dichloropyridin-4-yl)thio)-4-nitrothiophene-2-carboxamide] was tested. Which pEC50 did it give?
Answer: The pEC50 was at least 6.00.

Question: `COCCCNC(=O)c1cc([N+](=O)[O-])c(Sc2c(Cl)cncc2Cl)s1` [Example 119, 5-((3,5-dichloropyridin-4-yl)thio)-N-(3-methoxypropyl)-4-nitrothiophene-2-carboxamide] was tested. Which pEC50 did it give?
Answer: The pEC50 was at least 6.00.

Question: With `O=C(NCCc1ccc(F)cc1)c1cc([N+](=O)[O-])c(Sc2c(Cl)cncc2Cl)s1` [Example 120, 5-((3,5-dichloropyridin-4-yl)thio)-N-(4-fluorophenethyl)-4-nitrothiophene-2-carboxamide] as the molecule, how does the pEC50 read?
Answer: Its pEC50 is at least 6.00.

Question: How did the pEC50 turn out when `CN(C)c1ccc(CNC(=O)c2cc([N+](=O)[O-])c(Sc3c(Cl)cncc3Cl)s2)cc1` [Example 121, 5-((3,5-dichloropyridin-4-yl)thio)-N-(4-(dimethylamino)benzyl)-4-nitrothiophene-2-carboxamide] was run?
Answer: Its pEC50 is at least 6.00.

Question: `CC(=O)Nc1cccc(CNC(=O)c2cc([N+](=O)[O-])c(Sc3c(Cl)cncc3Cl)s2)c1` [Example 122, N-(3-acetamidobenzyl)-5-((3,5-dichloropyridin-4-yl)thio)-4-nitrothiophene-2-carboxamide] was tested. Which pEC50 did it give?
Answer: The pEC50 was at least 6.00.

Question: How did the pEC50 turn out when `O=C(NC1CC1)c1cc([N+](=O)[O-])c(Sc2c(Cl)cncc2Cl)s1` [Example 124, N-cyclopropyl-5-((3,5-dichloropyridin-4-yl)thio)-4-nitrothiophene-2-carboxamide] was run?
Answer: The pEC50 was at least 6.00.

Question: `CS(=O)(=O)c1cccc(CNC(=O)c2cc([N+](=O)[O-])c(Sc3c(Cl)cncc3Cl)s2)c1` [Example 125, 5-((3,5-dichloropyridin-4-yl)thio)-N-(3-(methylsulfonyl)benzyl)-4-nitrothiophene-2-carboxamide] was tested. Which pEC50 did it give?
Answer: The pEC50 was at least 6.00.

Question: With `CN(C)CCCOc1cccc(CNC(=O)c2cc([N+](=O)[O-])c(Sc3c(Cl)cncc3Cl)s2)c1` [Example 126, 5-[(3,5-dichloro-4-pyridyl)sulfanyl]-N-[[3-(3-dimethylaminopropoxy)phenyl]methyl]-4-nitro-thiophene-2-carboxamide] as the molecule, how does the pEC50 read?
Answer: The pEC50 was at least 6.00.

Question: How did the pEC50 turn out when `CSc1cccc(CN(C)C(=O)c2cc([N+](=O)[O-])c(Sc3c(Cl)cncc3Cl)s2)c1` [Example 127, 5-((3,5-dichloropyridin-4-yl)thio)-N-methyl-N-(3-(methylthio)benzyl)-4-nitrothiophene-2-carboxamide] was run?
Answer: The pEC50 was at least 6.00.

Question: How did the pEC50 turn out when `O=C(NCc1cccc(F)c1)c1cc([N+](=O)[O-])c(Sc2c(Cl)cncc2Cl)s1` [Example 128, 5-((3,5-dichloropyridin-4-yl)thio)-N-(3-fluorobenzyl)-4-nitrothiophene-2-carboxamide] was run?
Answer: Its pEC50 is at least 6.00.
